Data as given in the supplement of paper PMC11061612.

How the values were obtained:
Assay in all cases: combination Emax (second highest fraction inhibited in the dose matrix, 72 h); higher = more inhibition; extreme values may be limits of the assay
[1] = system: 8505C (Thyroid Gland Carcinoma)
In short: (§1)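 Cell lines grown in DMEM/F12 or RPMI with 10% FBS were plated in 1536-well plates and held 24 hours at 37°C, 5% CO2 before 72 hours of exposure to two-drug dose matrices, with DMSO typically at 0.2%. CellTiter-Glo 2.0 luminescence gave viability, which was converted to inhibition. Vehicle wells were set to 0 and blank wells to 1. Combination Emax is the second-highest inhibition in the matrix, and Bliss excess is the observed combination effect minus the expected EA + EB − EA·EB, where EA and EB are the single-agent effects.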

[2] = system: COR-L279 (Small Cell Lung Carcinoma)
In short: as §1

[3] = system: CW-2 (Colorectal Carcinoma)
In short: as §1

[4] = system: DAN-G (Pancreatic Carcinoma)
In short: as §1

[5] = system: G-361 (Melanoma)
In short: as §1

[6] = system: KU812 (Chronic Myelogenous Leukemia)
In short: as §1

[7] = system: KY821 (Acute Myeloid Leukemia)
In short: as §1

[8] = system: MN-60 (B-Lymphoblastic Leukemia)
In short: as §1

[9] = system: MOG-G-CCM (Low Grade Glioma)
In short: as §1

[10] = system: NCCIT (Other Solid Carcinomas)
In short: as §1

[11] = system: NCI-H3122 (Lung Adenocarcinoma)
In short: as §1

[12] = system: NCI-H520 (Squamous Cell Lung Carcinoma)
In short: as §1

[13] = system: NCI-H526 (Small Cell Lung Carcinoma)
In short: as §1

[14] = system: NCI-H929 (Plasma Cell Myeloma)
In short: as §1

[15] = system: PC-3 (Prostate Carcinoma)
In short: as §1

[16] = system: RD (Rhabdomyosarcoma)
In short: as §1

[17] = system: SNU-398 (Hepatocellular Carcinoma)
In short: as §1

[18] = system: SU-DHL-5 (B-Cell Non-Hodgkin's Lymphoma)
In short: as §1

[19] = system: SUP-B15 (B-Lymphoblastic Leukemia)
In short: as §1

[20] = system: T-T (Esophageal Squamous Cell Carcinoma)
In short: as §1

Row | SMILES | combination Emax [1] | combination Emax [2] | combination Emax [3] | combination Emax [4] | combination Emax [5] | combination Emax [6] | combination Emax [7] | combination Emax [8] | combination Emax [9] | combination Emax [10] | combination Emax [11] | combination Emax [12] | combination Emax [13] | combination Emax [14] | combination Emax [15] | combination Emax [16] | combination Emax [17] | combination Emax [18] | combination Emax [19] | combination Emax [20]
1 | CN(C)CCCOc1ccc(-c2ccc3ncc4c(c3c2)n(C2CCOCC2)c(=O)n4C)cn1 [AZD0156] + C[C@@H]1COCCN1C2=NC(=NC(=C2)C3(CC3)[S@](=N)(=O)C)C4=C5C=CNC5=NC=C4 [AZD6738] (first compound max 1 µM, 7x7, partner max 10 µM) | 0.24 | 0.694 | 0.543 | 0.696 | 0.628 | 0.735 | 0.966 | 0.402 | 0.413 | 0.656 | 0.746 | 0.682 | 0.529 | 0.778 | 0.484 | 0.252 | 0.462 | 1 | 0.879 | 0.659
2 | C[C@@H](c1ccc2nccn2c1)n1nnc2ncc(-c3cnn(C)c3)nc21 [Savolitinib] + Cc1c2c(nn1C)CSCc1cc(n(C)n1)CSc1cc(c3ccccc3c1)OCCCc1c(C(=O)O)n(C)c3c-2c(Cl)ccc13 [AZD5991] (first compound max 1 µM, 7x7, partner max 1 µM) | 0.173 | 0.244 | 0.157 | 0.195 | 0.358 | 0.708 | 1 | 0.114 | 0.212 | 0.457 | 0.188 | 0.208 | 0.43 | 1 | 0.121 | 0.21 | 0.936 | 1 | 0.678 | 0.836
3 | CN(CCO)CC[C@H](CSc1ccccc1)Nc1ccc(S(=O)(=O)NC(=O)c2ccc(N3CCC([C@@H](O)c4ccccc4-c4ccc(Cl)cc4)CC3)cc2)cc1S(=O)(=O)C(F)(F)F [AZD4320] + C1CN(CCC1(C(=O)N[C@@H](CCO)C2=CC=C(C=C2)Cl)N)C3=NC=NC4=C3C=CN4 [Capivasertib] (first compound max 1 µM, 7x7, partner max 3 µM) | 0.135 | 0.983 | 0.158 | 0.507 | 0.234 | 0.737 | 1 | 0.137 | 0.528 | 0.378 | 0.285 | 0.593 | 0.929 | 0.969 | 0.231 | 0.575 | 0.0802 | 0.956 | 1 | 0.199
4 | CC(=O)c1c(C)c2cnc(Nc3ccc(N4CCNCC4)cn3)nc2n(C2CCCC2)c1=O [Palbociclib] + CC1(C)CCC(CN2CCN(c3ccc(C(=O)NS(=O)(=O)c4ccc(NCC5CCOCC5)c([N+](=O)[O-])c4)c(Oc4cnc5[nH]ccc5c4)c3)CC2)=C(c2ccc(Cl)cc2)C1 [Venetoclax] (first compound max 10 µM, 7x7, partner max 1 µM) | 0.047 | 0.375 | 0.336 | 0.178 | 0.488 | 0.521 | 1 | 0.422 | 0.136 | 0.279 | 0.572 | 0.628 | 0.71 | 0.356 | 0.1 | 0.331 | 0.326 | 1 | 0.989 | 0.242
5 | CN(C)CCCOc1ccc(-c2ccc3ncc4c(c3c2)n(C2CCOCC2)c(=O)n4C)cn1 [AZD0156] + C=CCn1c(=O)c2cnc(Nc3ccc(N4CCN(C)CC4)cc3)nc2n1-c1cccc(C(C)(C)O)n1 [AZD1775] (first compound max 1 µM, partner max 1 µM) | 0.126 | 0.454 | 0.292 | 0.651 | 0.564 | 0.789 | 0.987 | 0.374 | 0.4 | 0.858 | 0.765 | 0.789 | 0.65 | 0.675 | 0.224 | 0.401 | 0.473 | 0.977 | 0.602 | 0.377
6 | COc1cc2c(cc1OCCCCCOc1cc3c(cc1OC)C(=O)N1C=C(C)C[C@H]1C=N3)N=C[C@@H]1CC(C)=CN1C2=O [SG3199] + O=C(c1cc(Cc2n[nH]c(=O)c3ccccc23)ccc1F)N1CCN(C(=O)C2CC2)CC1 [Olaparib] (first compound max 0.001 µM, 7x7, partner max 10 µM) | 0.202 | 0.878 | 0.0839 | 0.137 | 0.0716 | 0.192 | 0.101 | 0.079 | 0.0595 | 0.0982 | 0.172 | 0.118 | 0.503 | 0.192 | 0.159 | 0.0922 | 0.175 | 0.958 | 0.921 | 0.114
